Laboratory results published in US9387221B2, “SDF-1 binding nucleic acids and the use thereof in cancer treatment” (NOXXON Pharma AG, priority 2010, dated 2016).
[L-RNA-N] = L-ribonucleotide (mirror-image RNA, Spiegelmer), made from L-configured RNA phosphoramidites (N: the base); {PEG40k} = 40 kDa poly(ethylene glycol)

Key:
[1] = tested on: SDF-1 induced sprouting, rings from rat aorta; assay: Aortic ring sprouting assay; assay type: cell-based; conditions: 10 nM SDF-1 + 1 μM Spiegelmer, 6 days
Procedure: After 6 to 7 days, sprouting (i.e. outgrowth of endothelial cells) was analysed by taking pictures and determining a sprouting index.
Aortae from male rats were obtained from Bagheri Life sciences (Berlin, Germany). The aortae were prepared freshly and transported on ice in MCDB 131-Medium (Invitrogen, Karlsruhe, Germany) containing 50 units/ml penicillin, 50 μg/ml streptomycin (both Invitrogen, Karlsruhe, Germany) and 2.5 μg/ml fungizone (Cambrex, USA).
For an experiment a single aorta was transferred to a cell culture dish together with the medium and residual connective tissue was removed. Then the aorta was cut with a scalpel into rings of about 1 to 2 mm length. The rings were washed intensively (at least five times) in Medium199 (Invitrogen, Karlsruhe, Germany) and then placed in wells of a 24 well plate, containing 450 μl of collagen solution per well. […]
Sprouting was documented by taking pictures with a digital camera. […] Pictures were analysed with the Scion Image image processing software. […] A plot histogram along this line was generated by the software, histograms were printed and peaks (representing sprouts crossing the line) were counted. […] 4 to 5 rings per condition were evaluated. […]

SDF-1 = SDF-1 (Homo sapiens, UniProt P48061); assay: Inhibition of SDF-1-induced chemotaxis, Jurkat cells; assay type: cell-based; conditions: for IC50: Spiegelmer, Jurkat cells migrating towards 0.3 nM human SDF-1, 3 h, 37° C., read-out: IC50, cell culture in vitro chemotaxis assay; for influence of the PEG-moiety on Spiegelmers potency to inhibit SDF-1 induced chemotaxis: Spiegelmer coupled to 40 kDa PEG at the 5′-end
Procedure: The human T cell leukemia cell line Jurkat, the human leukemic monocyte lymphoma cell line U937, the human pre-B cell leukemia cell line BV-173 and human pre-B ALL cell line Nalm-6 express CXCR4. […] All cells used were obtained from the DSMZ (Braunschweig). All cell lines were cultivated at 37° C. and 5% CO2 in RPMI 1640 medium with Glutamax (Invitrogen, Karlsruhe, Germany) which contains 10% fetal bovine serum, 100 units/ml penicillin and 100 μg/ml streptomycin (Invitrogen, Karlsruhe, Germany). One day before the experiment, cells were seeded in a new T175 flask with a density of 0.3×10^6/ml (Jurkat, U937, BV-173) or 0.75×10^6/ml (Nalm-6), respectively.
For the experiment, cells were centrifuged (5 min at 300 g), resuspended, counted and washed once with 15 ml HBH (Hanks balanced salt solution containing 1 mg/ml bovine serum albumin and 20 mM HEPES; Invitrogen, Karlsruhe, Germany). Then the cells were resuspended at 1.33×10^6/ml (Jurkat, U937, BV-173) or 2.67×10^6/ml (Nalm-6), respectively. Cells were then allowed to migrate through the porous membranes of the filter plates for three hours towards a solution containing SDF-1 and various amounts of Spiegelmer. The stimulation solutions (SDF-1+various concentrations of Spiegelmer) were made up as 10× solutions in a 0.2 ml low profile 96-tube plate. 212 μl HBH were pipetted into the lower compartments of the transport plate and 23.5 μl of the stimulation solutions were added. All conditions were made up as triplicates. After 20 to 30 min the filter plate was inserted into the plate containing the stimulation solutions and 75 μl of a cell suspension with 1.33×10^6/ml or 2.67×10^6/ml, respectively, were added to the wells of the filter plate (1×10^5 or 2×10^5 cells/well). The cells were then allowed to migrate for 3 h at 37° C. For calibration, 0, 10 and 30 μl of the cell suspension was added to 235, 225 and 205 μl HBH, respectively, in wells of a separate 96-well plate. After 3 hours incubation, the insert plate was removed and 30 μl resazurin working solution (440 μM in PBS) were added to the lower wells and to the wells of the calibration plate. The plates were then incubated at 37° C. for 2.5 h. After incubation, 100 μl of each well were transferred to a black 96 well plate.
For evaluation, fluorescence values were corrected for background fluorescence (no cells in well). Then the difference between experimental conditions with and without SDF-1 was calculated. The value for the sample without Spiegelmer (SDF-1 only) was set 100% and the values for the samples with Spiegelmer were calculated as percent of this. For a dose-response curve the percent-values were plotted against Spiegelmer concentration and the IC50-value (concentration of Spiegelmer at which 50% of the activity without Spiegelmer is present) was determined graphically from the resulting curve.

[2] = tested on: biotinylated human D-SDF-1; assay: Competitive pull-down binding assay; conditions: for binding affinity in competitive pull-down binding assay vs. 192-A10-001: aptamer level, reference 192-A10-001
Procedure: In order to compare different D-SDF-1 binding aptamers, a competitive ranking assay was performed. For this purpose the most affine aptamer available was radioactively labeled (see above) and served as reference. […] An excess of de- and renatured non-labeled D-RNA aptamer variants was added to different concentrations (e.g. 2, 10, and 50 nM) with the labeled reference aptamer to parallel binding reactions. The aptamers to be tested competed with the reference aptamer for target binding, thus decreasing the binding signal in dependence of their binding characteristics.

human SDF-1α = human SDF-1α (Homo sapiens, UniProt P48061); assay: Surface plasmon resonance measurement (Biacore 2000); assay type: binding; conditions: Spiegelmer (L-RNA), 37° C.
Procedure: The Biacore 2000 instrument (Biacore AB, Uppsala, Sweden) was used to analyze binding of Spiegelmers to human SDF-1α. When coupling of human SDF-1α was to be achieved via amine groups, human SDF-1α was dialyzed against water for 1-2 h (Millipore VSWP mixed cellulose esters; pore size, […]) to remove interfering amines. CM4 sensor chips (Biacore AB, Uppsala, Sweden) were activated before protein coupling by a 35-μl injection of a 1:1 dilution of 0.4 M NHS and 0.1 M EDC at a flow of 5 μl/min. Human MCP-1 or human SDF-1α was then injected in concentrations of 0.1-1.5 μg/ml at a flow of 2 μl/min until the instrument's response was in the range of 1000-2000 RU (relative units). Unreacted NHS esters were deactivated by injection of 35 μl ethanolamine hydrochloride solution (pH 8.5) at a flow of 5 μl/min. The sensor chip was primed twice with binding buffer and equilibrated at 10 μl/min for 1-2 hours until the baseline appeared stable. For all proteins, kinetic parameters and dissociation constants were evaluated by a series of Spiegelmer injections at concentrations of 1000, 500, 250, 125, 62.5, 31.25, and 0 nM in selection buffer (Tris-HCl, 20 mM; NaCl, 137 mM; KCl, 5 mM; CaCl2, 1 mM; MgCl2, 1 mM; Tween20, 0.1% [w/v]; pH 7.4). In all experiments, the analysis was performed at 37° C. using the Kinject command defining an association time of 180 and a dissociation time of 360 seconds at a flow of 10 μl/min. Data analysis and calculation of dissociation constants (KD) was done with the BIAevaluation 3.0 software (BIACORE AB, Uppsala, Sweden) using the Langmuir 1:1 stochiometric fitting algorithm.

[3] = tested on: biotinylated human D-SDF-1; assay: Direct pull-down binding assay; conditions: aptamer (D-RNA), 37° C.; read-out: equilibrium binding constant KD, pull-down binding assay
Procedure: The affinity of aptamers to biotinlayted human D-SDF-1 was measured in a pull-down binding assay format at 37° C. Aptamers were 5′-phosphate labeled by T4 polynucleotide kinase (Invitrogen, Karlsruhe, Germany) using [γ-^32P]-labeled ATP (Hartmann Analytic, Braunschweig, Germany). The specific radioactivity of labeled aptamers was 200,000-800,000 cpm/pmol. Aptamers were incubated after de- and renaturation at 10, 20, 30 or 40 pM concentration at 37° C. in selection buffer (20 mM Tris-HCl pH 7.4; 137 mM NaCl; 5 mM KCl; 1 mM MgCl2; 1 mM CaCl2; 0.1% [w/vol] Tween-20) together with varying amounts of biotinlayted human D-SDF-1 for 4-12 hours in order to reach equilibrium at low concentrations. Selection buffer was supplemented with 10 μg/ml human serum albumin (Sigma-Aldrich, Steinheim, Germany), and 10 μg/ml yeast RNA (Ambion, Austin, USA) in order to prevent adsorption of binding partners with surfaces of used plasticware or the immobilization matrix. The concentration range of biotinlayted human D-SDF-1 was set from 8 pM to 100 nM; total reaction volume was 1 ml. Peptide and peptide-aptamer complexes were immobilized on 1.5 μl Streptavidin Ultralink Plus particles (Pierce Biotechnology, Rockford, USA) which had been preequilibrated with selection buffer and resuspended in a total volume of 6 μl. Particles were kept in suspension for 30 min at the respective temperature in a thermomixer. Immobilized radioactivity was quantitated in a scintillation counter after detaching the supernatant and appropriate washing. The percentage of binding was plotted against the concentration of biotinlayted human D-SDF-1 and dissociation constants were obtained by using software algorithms (GRAFIT; Erithacus Software; Surrey U.K.) assuming a 1:1 stoichiometry.

Chain of human SDF-1α (P48061 22-89): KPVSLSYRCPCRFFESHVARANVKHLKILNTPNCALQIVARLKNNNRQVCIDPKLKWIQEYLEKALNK
Chain of SDF-1 (P48061 22-89): as above

Row | Substance | binding affinity in competitive pull-down binding assay vs. 192-A10-001 [2] | Kd (human SDF-1α) | Kd [3] | IC50 (SDF-1) | influence of the PEG-moiety on Spiegelmers potency to inhibit SDF-1 induced chemotaxis (SDF-1) | also measured
1 | 5′-40 kDa-PEG-UAAGGAAACUCGGUCUGAUGCGGUAGCGCUGUGCAGAGCU (all [L-RNA-N], 5' {PEG40k}, backbone not given here) [Control Spiegelmer, reference compound] | – | – | – | – | – | blockage of SDF-1 induced sprouting (sprouting index) [1]: No blockage; inhibition of SDF-1 induced chemotaxis (SDF-1; Jurkat cells, Control Spiegelmer up to 1 μM): no inhibitory effect
2 | AGCGUGGCGAGGUUAGGGCUAGAAGUCGGUCGACACGCU (Made as D-RNA aptamer and L-RNA Spiegelmer, tested form not given here, further chemistry not given here) [191-D5-001] | weaker binding affinities | 0.8 nM | – | – | – | –
3 | AGCGUGGUGUGAUCUAGAUGUAUUGGCUGAUCCUAGUCAGGUACGCU (chemistry not fully specified) [193-G2-001] | superior binding | – | 0.3 nM | 0.08 nM | – | –
4 | CGGGAGGUUAGGGCUAGAAGUCGGUCCCG (chemistry not fully specified) [191-D5-007] | – | 0.8 nM | 2.2 nM | 0.1 nM | no influence | binding affinity in competitive pull-down binding assay vs. 191-D5-001 ([2]; reference 191-D5-001): somewhat better
5 | GAGAUAGGGGUUAGGGCUUAAAGUCGGCUGAUUCUC (aptamer; Made as D-RNA aptamer and L-RNA Spiegelmer, tested form not given here, further chemistry not given here) [190-A3-004] | – | 4.7 nM | 4.6 nM | 0.1 nM | – | binding affinity of derivatives of 190-A3-001 ([2]; compared with 190-A3-001): does not have an influence on the binding affinity
6 | GCCGGGGUUAGGGCUAGAAGUCGGCCGGC (chemistry not fully specified) [197-B2-006] | – | – | – | – | no influence | binding affinity of truncated derivatives of 197-B2 ([2]; vs. 197-B2 and 191-D5-007): fully persisted
7 | GCGUGAAAGCAACAUGUCAAUGAAAGGUAGCCGCGC (chemistry not fully specified) [192-A10-008] | – | – | – | – | no influence | binding affinity of derivatives of 192-A10-001 in competitive pull-down binding assay ([2]; vs. 192-A10-001 and 192-A10-008): same binding affinity as shown for 192-A10-002
8 | GCGUGGUGUGAUCUAGAUGUAUUGGCUGAUCCUAGUCAGGUACGC (chemistry not fully specified) [193-G2-012] | – | – | 0.3 nM | – | – | –
9 | GCUGUGAAAGCAACAUGUCAAUGAAAGGUAGCCGCAGC (aptamer; Made as D-RNA aptamer and L-RNA Spiegelmer, tested form not given here, further chemistry not given here) [192-A10-001] | – | – | 1.5 nM | 0.12 nM | – | –
10 | GUGCUGCGGGGGUUAGGGCUAGAAGUCGGCCUGCAGCAC (aptamer; chemistry not fully specified) [197-B2] | weaker binding affinities | 0.9 nM | – | – | – | binding affinity in competitive pull-down binding assay vs. 191-D5-007 ([2]; reference 191-D5-007): same binding affinity to SDF-1 as 191-D5-007
